ChEMBL document CHEMBL1201862, “PubChem BioAssay data set” (2004)
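These data come from cells grown in 96-well plates and exposed to compound for 48 hours at five concentrations. GI50 = concentration required for 50% inhibition of growth.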 Activity calls are given as the source filed them. Cut-off read from the data, not from the text of the source: active = GI50 up to about 1.1 µM and inactive = higher.

Key:
Assay in all cases: growth of human tumour cells (NCI), 48 h
786-0 = system: 786-0
A498 = system: A498
A549 = system: A549
ACHN = system: ACHN
BT-549 = system: BT-549
CAKI-1 = system: CAKI-1
CCRF-CEM = system: CCRF-CEM
COLO 205 = system: COLO 205
DU-145 = system: DU-145
EKVX = system: EKVX
HCC 2998 = system: HCC 2998
HCT-116 = system: HCT-116
HCT-15 = system: HCT-15
HL-60 = system: HL-60
HOP-62 = system: HOP-62
HOP-92 = system: HOP-92
HT-29 = system: HT-29
Hs-578T = system: Hs-578T
IGROV-1 = system: IGROV-1
K562 = system: K562
KM12 = system: KM12
LOX IMVI = system: LOX IMVI
M14 = system: M14
MCF7 = system: MCF7
MDA-MB-231 = system: MDA-MB-231
MDA-MB-435 = system: MDA-MB-435
MDA-N = system: MDA-N
MOLT-4 = system: MOLT-4
Malme-3M = system: Malme-3M
NCI-H226 = system: NCI-H226
NCI-H23 = system: NCI-H23
NCI-H460 = system: NCI-H460
NCI-H522 = system: NCI-H522
NCI/ADR-RES = system: NCI/ADR-RES
OVCAR-3 = system: OVCAR-3
OVCAR-4 = system: OVCAR-4
OVCAR-5 = system: OVCAR-5
OVCAR-8 = system: OVCAR-8
PC-3 = system: PC-3
RPMI-8226 = system: RPMI-8226
RXF 393 = system: RXF 393
SF-268 = system: SF-268
SF-295 = system: SF-295
SF-539 = system: SF-539
SK-MEL-28 = system: SK-MEL-28
SK-MEL-2 = system: SK-MEL-2
SK-MEL-5 = system: SK-MEL-5
SK-OV-3 = system: SK-OV-3
SN12C = system: SN12C
SNB-19 = system: SNB-19
SW-620 = system: SW-620
T47D = system: T47D
TK-10 = system: TK-10
U-251 = system: U-251
UACC-257 = system: UACC-257
UACC-62 = system: UACC-62
UO-31 = system: UO-31

O=c1c(Cc2ccc(Cl)cc2)nnc2sc(-c3ccc(-c4ccc(Cl)cc4Cl)o3)nn12
GI50 (786-0): 48 µM (inactive)
GI50 (A498): 41.5 µM (inactive)
GI50 (A549): 80.5 µM (inactive)
GI50 (ACHN): 52 µM (inactive)
GI50 (BT-549): > 100 µM (inactive)
GI50 (CAKI-1): 73.5 µM (inactive)
GI50 (CCRF-CEM): 61.7 µM (inactive)
GI50 (COLO 205): 72.3 µM (inactive)
GI50 (DU-145): 70 µM (inactive)
GI50 (EKVX): 29.4 µM (inactive)
GI50 (HCC 2998): 49.5 µM (inactive)
GI50 (HCT-116): 27.5 µM (inactive)
GI50 (HCT-15): 41.4 µM
GI50 (HL-60): 23.2 µM (inactive)
GI50 (HOP-62): 43.2 µM (inactive)
GI50 (HOP-92): 38.5 µM (inactive)
GI50 (HT-29): 64.1 µM (inactive)
GI50 (Hs-578T): > 100 µM (inactive)
GI50 (IGROV-1): > 100 µM (inactive)
GI50 (K562): 89.9 µM (inactive)
GI50 (KM12): 76.6 µM (inactive)
GI50 (LOX IMVI): 47.1 µM (inactive)
GI50 (M14): 95.5 µM (inactive)
GI50 (MCF7): 30.5 µM (inactive)
GI50 (MDA-MB-231): 93.3 µM (inactive)
GI50 (MDA-MB-435): 71 µM (inactive)
GI50 (MDA-N): 48 µM (inactive)
GI50 (MOLT-4): 43.7 µM (inactive)
GI50 (Malme-3M): > 100 µM (inactive)
GI50 (NCI-H226): > 100 µM (inactive)
GI50 (NCI-H23): 66.5 µM (inactive)
GI50 (NCI-H460): 59.6 µM (inactive)
GI50 (NCI-H522): 52.8 µM (inactive)
GI50 (NCI/ADR-RES): 80.5 µM (inactive)
GI50 (OVCAR-3): 34 µM (inactive)
GI50 (OVCAR-4): 42.9 µM (inactive)
GI50 (OVCAR-5): 94.8 µM (inactive)
GI50 (OVCAR-8): 48.6 µM (inactive)
GI50 (PC-3): 79.8 µM (inactive)
GI50 (RPMI-8226): > 100 µM (inactive)
GI50 (RXF 393): 53.8 µM (inactive)
GI50 (SF-268): > 100 µM (inactive)
GI50 (SF-295): 83.6 µM (inactive)
GI50 (SF-539): 85.7 µM (inactive)
GI50 (SK-MEL-28): > 100 µM (inactive)
GI50 (SK-MEL-2): 36.7 µM (inactive)
GI50 (SK-MEL-5): > 100 µM (inactive)
GI50 (SK-OV-3): > 100 µM (inactive)
GI50 (SN12C): 44.6 µM (inactive)
GI50 (SNB-19): 33.3 µM (inactive)
GI50 (SW-620): > 100 µM (inactive)
GI50 (T47D): 74.5 µM (inactive)
GI50 (TK-10): > 100 µM (inactive)
GI50 (U-251): 31 µM (inactive)
GI50 (UACC-257): > 100 µM (inactive)
GI50 (UACC-62): 63.1 µM (inactive)
GI50 (UO-31): 57.8 µM (inactive)
